{"source": "paper PMC7201885", "about": "(The Journal of General Physiology, 2020)", "key": {"[1]": {"target": "T307A nvTRPM2 (Nematostella vectensis, UniProt A7T1N0, T307A)", "sequence (A7T1N0 whole entry T307A)": "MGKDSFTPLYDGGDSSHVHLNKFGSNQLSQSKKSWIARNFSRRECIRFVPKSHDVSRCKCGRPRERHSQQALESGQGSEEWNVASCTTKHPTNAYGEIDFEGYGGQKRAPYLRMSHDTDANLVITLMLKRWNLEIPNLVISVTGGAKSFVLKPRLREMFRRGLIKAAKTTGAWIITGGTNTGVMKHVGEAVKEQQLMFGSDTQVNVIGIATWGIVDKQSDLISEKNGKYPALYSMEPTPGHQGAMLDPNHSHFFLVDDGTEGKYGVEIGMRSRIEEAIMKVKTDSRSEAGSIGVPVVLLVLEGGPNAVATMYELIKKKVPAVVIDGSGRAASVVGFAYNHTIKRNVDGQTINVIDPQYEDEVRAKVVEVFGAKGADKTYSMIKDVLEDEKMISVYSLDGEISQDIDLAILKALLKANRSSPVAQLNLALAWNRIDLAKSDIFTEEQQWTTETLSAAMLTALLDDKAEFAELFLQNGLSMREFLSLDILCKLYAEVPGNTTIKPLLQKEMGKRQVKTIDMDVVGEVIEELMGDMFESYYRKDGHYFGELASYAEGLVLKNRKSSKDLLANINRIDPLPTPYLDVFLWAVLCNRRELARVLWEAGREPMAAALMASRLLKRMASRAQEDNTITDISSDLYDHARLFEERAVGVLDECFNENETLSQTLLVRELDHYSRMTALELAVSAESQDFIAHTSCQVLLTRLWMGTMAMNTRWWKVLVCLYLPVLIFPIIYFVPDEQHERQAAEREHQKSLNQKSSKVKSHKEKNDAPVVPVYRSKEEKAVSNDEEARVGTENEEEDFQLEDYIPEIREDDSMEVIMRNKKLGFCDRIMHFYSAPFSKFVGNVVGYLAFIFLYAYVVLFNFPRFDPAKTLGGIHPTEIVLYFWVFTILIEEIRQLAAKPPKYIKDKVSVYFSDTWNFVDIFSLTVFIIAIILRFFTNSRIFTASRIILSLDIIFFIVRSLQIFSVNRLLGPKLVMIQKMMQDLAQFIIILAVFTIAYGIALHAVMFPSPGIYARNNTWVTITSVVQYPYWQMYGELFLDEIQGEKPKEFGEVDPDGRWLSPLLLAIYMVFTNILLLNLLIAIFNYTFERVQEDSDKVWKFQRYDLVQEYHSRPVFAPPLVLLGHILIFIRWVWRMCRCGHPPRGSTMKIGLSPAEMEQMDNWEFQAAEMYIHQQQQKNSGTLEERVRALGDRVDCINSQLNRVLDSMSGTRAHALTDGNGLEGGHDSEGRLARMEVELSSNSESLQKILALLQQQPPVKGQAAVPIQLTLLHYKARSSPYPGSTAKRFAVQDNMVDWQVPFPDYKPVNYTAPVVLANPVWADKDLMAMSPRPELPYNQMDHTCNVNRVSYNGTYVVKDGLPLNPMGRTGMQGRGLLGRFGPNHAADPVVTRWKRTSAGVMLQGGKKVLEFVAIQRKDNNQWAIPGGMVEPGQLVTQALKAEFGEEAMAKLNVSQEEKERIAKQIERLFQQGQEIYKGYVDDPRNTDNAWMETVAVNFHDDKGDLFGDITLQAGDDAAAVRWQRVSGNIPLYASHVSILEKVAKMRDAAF", "assay": "Inside-out patch-clamp, T307A nvTRPM2", "format": "cell-based"}, "[2]": {"target": "R271A nvTRPM2 (Nematostella vectensis, UniProt A7T1N0, R271A)", "sequence (A7T1N0 whole entry R271A)": "as the sequence (A7T1N0 whole entry T307A) above, with R271A, A307T counted along it", "assay": "Inside-out patch-clamp, R271A nvTRPM2", "format": "cell-based"}, "[3]": {"test_system": "hsTRPM2", "details": "cited from earlier work"}, "[4]": {"target": "T179A nvTRPM2 (Nematostella vectensis, UniProt A7T1N0, T179A)", "sequence (A7T1N0 whole entry T179A)": "as the sequence (A7T1N0 whole entry T307A) above, with T179A, A307T counted along it", "assay": "Inside-out patch-clamp, T179A nvTRPM2", "format": "cell-based"}, "[5]": {"target": "nvTRPM2 (Nematostella vectensis, UniProt A7T1N0)", "sequence (A7T1N0 whole entry)": "as the sequence (A7T1N0 whole entry T307A) above, with A307T counted along it", "assay": "Inside-out patch-clamp, full-length", "format": "cell-based", "details": "for Mode of action on nvTRPM2: compared with ADPR; for Maximal fractional activation: relative to current in 100 µM ADPR"}, "[6]": {"target": "T143A nvTRPM2 (Nematostella vectensis, UniProt A7T1N0, T143A)", "sequence (A7T1N0 whole entry T143A)": "as the sequence (A7T1N0 whole entry T307A) above, with T143A, A307T counted along it", "assay": "Inside-out patch-clamp, T143A nvTRPM2", "format": "cell-based"}, "[7]": {"target": "Y264A nvTRPM2 (Nematostella vectensis, UniProt A7T1N0, Y264A)", "sequence (A7T1N0 whole entry Y264A)": "as the sequence (A7T1N0 whole entry T307A) above, with Y264A, A307T counted along it", "assay": "Inside-out patch-clamp, Y264A nvTRPM2", "format": "cell-based"}, "[8]": {"target": "R329A nvTRPM2 (Nematostella vectensis, UniProt A7T1N0, R329A)", "sequence (A7T1N0 whole entry R329A)": "as the sequence (A7T1N0 whole entry T307A) above, with A307T, R329A counted along it", "assay": "Inside-out patch-clamp, R329A nvTRPM2", "format": "cell-based"}, "[9]": {"details": "read-out: EC50 for channel activation, 125 µM Ca2+ + 2.5 µM PIP2"}, "[10]": {"details": "full-length nvTRPM2, 125 µM Ca2+"}, "[11]": {"details": "read-out: EC50 for nvTRPM2 channel activation, full-length nvTRPM2, 125 µM cytosolic Ca2+, Hill fit, −20 mV"}, "[12]": {"details": "read-out: EC50 for channel activation by Ca2+ (fractional Po), saturating ADPRP (1,000 µM) + 2.5 µM PIP2"}, "[13]": {"details": "saturating ADPRP (1,000 µM) + 2.5 µM PIP2"}, "[14]": {"details": "read-out: EC50 for channel activation by Ca2+ (fractional Po), saturating ADPRP (100 µM) + 2.5 µM PIP2"}, "[15]": {"details": "saturating ADPRP (100 µM) + 2.5 µM PIP2"}, "[16]": {"details": "2.5 and 25 µM PIP2, 125 µM Ca2+ + 3.2 mM ADPR"}, "[17]": {"details": "25 µM PIP2, 125 µM Ca2+ + 3.2 mM ADPR"}}, "note": "Where “and” joins values, the source holds several entries; their conditions need not be identical. Equal values may be shown once. Read-outs that look alike come from different tables or passages of the source.", "data": [{"smiles": "Nc1ncnc2c1ncn2[C@@H]1O[C@H](COP(=O)(O)OP(=O)(O)OC[C@H]2O[C@@H](O)C(O)[C@H]2O)C(O)[C@@H]1OP(=O)(O)O", "note": "(some centres unmarked) [ADPRP, ADPR-2′-phosphate]", "values": [{"measurement": "Hill coefficient nH for channel activation", "setting": "[1]; 125 µM Ca2+ + 2.5 µM PIP2", "result": "1.6 ± 0.2"}, {"measurement": "EC50", "setting": "[1]; [9]", "result": "12 ± 1", "unit": "µM"}, {"measurement": "Hill coefficient nH for channel activation", "setting": "[2]; 125 µM Ca2+ + 2.5 µM PIP2", "result": "1.7 ± 0.2"}, {"measurement": "EC50", "setting": "[2]; [9]", "result": "0.089 ± 0.005", "unit": "µM"}, {"measurement": "EC50", "setting": "[3]; read-out: EC50 for hsTRPM2, activation, inside-out patches, saturating cytosolic Ca2+, ref Tóth et al., 2015", "result": "13 ± 1", "unit": "µM"}, {"measurement": "Mode of action on hsTRPM2", "setting": "[3]; ref Tóth et al., 2015", "result": "low-affinity partial agonist"}, {"measurement": "Hill coefficient nH for channel activation", "setting": "[4]; 125 µM Ca2+ + 2.5 µM PIP2", "result": "1.4 ± 0.2"}, {"measurement": "EC50", "setting": "[4]; [9]", "result": "3.9 ± 0.5", "unit": "µM"}, {"measurement": "Mode of action on nvTRPM2", "setting": "[5]; 125 µM Ca2+", "result": "full agonist"}, {"measurement": "Potency for activating WT nvTRPM2 relative to ADPR", "setting": "[5]; EC50 ratio versus ADPR", "result": "approximately fivefold"}, {"measurement": "Hill coefficient nH for channel activation", "setting": "[5]; WT nvTRPM2, 125 µM Ca2+ + 2.5 µM PIP2", "result": "1.8 ± 0.2"}, {"measurement": "Hill coefficient nH for channel activation", "setting": "[5]; [10]", "result": "2.1 ± 0.4"}, {"measurement": "EC50", "setting": "[5]; read-out: EC50 for channel activation, WT nvTRPM2, 125 µM Ca2+ + 2.5 µM PIP2", "result": "0.31 ± 0.02", "unit": "µM"}, {"measurement": "EC50", "setting": "[5]; [11]", "result": "~0.4", "unit": "µM"}, {"measurement": "Maximal fractional activation", "setting": "[5]; 125 µM Ca2+", "result": "1.06 ± 0.03"}, {"measurement": "Hill coefficient nH for channel activation", "setting": "[6]; 125 µM Ca2+ + 2.5 µM PIP2", "result": "1.8 ± 0.1"}, {"measurement": "EC50", "setting": "[6]; [9]", "result": "1.5 ± 0.1", "unit": "µM"}, {"measurement": "Hill coefficient nH for channel activation", "setting": "[7]; 125 µM Ca2+ + 2.5 µM PIP2", "result": "1.8 ± 0.3"}, {"measurement": "Hill coefficient nH for channel activation", "setting": "[8]; 125 µM Ca2+ + 2.5 µM PIP2", "result": "2.1 ± 0.2"}]}, {"smiles": "[Ca+2]", "note": "[Ca^2+]", "values": [{"measurement": "EC50", "setting": "[1]; [12]", "result": "0.93 ± 0.05", "unit": "µM"}, {"measurement": "Hill coefficient nH for activation by Ca2+", "setting": "[1]; [13]", "result": "1.9 ± 0.2"}, {"measurement": "EC50", "setting": "[2]; read-out: EC50 for channel activation by Ca2+ (fractional Po), saturating ADPRP (10 µM) + 2.5 µM PIP2", "result": "1.68 ± 0.04", "unit": "µM"}, {"measurement": "Hill coefficient nH for activation by Ca2+", "setting": "[2]; saturating ADPRP (10 µM) + 2.5 µM PIP2", "result": "3.0 ± 0.2"}, {"measurement": "EC50", "setting": "[4]; [14]", "result": "1.8 ± 0.1", "unit": "µM"}, {"measurement": "Hill coefficient nH for activation by Ca2+", "setting": "[4]; [15]", "result": "2.3 ± 0.1"}, {"measurement": "Hill coefficient nH for activation by Ca2+", "setting": "[5]; WT, saturating ADPRP (10 µM) + 2.5 µM PIP2", "result": "1.7 ± 0.2"}, {"measurement": "EC50", "setting": "[6]; [14]", "result": "0.64 ± 0.02", "unit": "µM"}, {"measurement": "Hill coefficient nH for activation by Ca2+", "setting": "[6]; [15]", "result": "2.3 ± 0.2"}, {"measurement": "EC50", "setting": "[7]; [12]", "result": "2 ± 0.1", "unit": "µM"}, {"measurement": "Hill coefficient nH for activation by Ca2+", "setting": "[7]; [13]", "result": "1.8 ± 0.1"}, {"measurement": "EC50", "setting": "[8]; [12]", "result": "1.1 ± 0.04", "unit": "µM"}, {"measurement": "Hill coefficient nH for activation by Ca2+", "setting": "[8]; [13]", "result": "2.0 ± 0.2"}]}, {"smiles": "CCCCCCCC(=O)OC[C@H](COP(=O)(O)O[C@@H]1[C@H](O)[C@H](O)[C@@H](OP(=O)(O)O)[C@H](OP(=O)(O)O)[C@H]1O)OC(=O)CCCCCCC", "note": "[PIP2, phosphatydyl-inositol-4-5-bisphosphate]", "values": [{"measurement": "Stimulation of macroscopic current by exogenous PIP2", "setting": "[1]; [16]", "result": "small fractional stimulation"}, {"measurement": "Stimulation of macroscopic current by exogenous PIP2", "setting": "[2]; [17]", "result": "approximately twofold"}, {"measurement": "Stimulation of macroscopic current by exogenous PIP2", "setting": "[4]; [17]", "result": "~80", "unit": "fold"}, {"measurement": "Stimulation of macroscopic current by exogenous PIP2", "setting": "[5]; WT, 125 µM Ca2+ + 3.2 mM ADPR", "result": "only marginal additional stimulation"}, {"measurement": "Stimulation of macroscopic current by exogenous PIP2", "setting": "[6]; [16]", "result": "small fractional stimulation"}, {"measurement": "Stimulation of macroscopic current by exogenous PIP2", "setting": "[7]; [17]", "result": "~40", "unit": "fold"}]}, {"smiles": "Nc1ncnc2c1ncn2[C@H]1C[C@H](O)[C@@H](COP(=O)(O)OP(=O)(O)OC[C@H]2OC(O)[C@H](O)[C@@H]2O)O1", "note": "(some centres unmarked) [dADPR, 2′-deoxy-ADPR]", "values": [{"measurement": "Mode of action on hsTRPM2", "setting": "[3]; larger maximal whole-cell currents compared with ADPR, ref Fliegert et al., 2017", "result": "super-agonist"}, {"measurement": "Mode of action on nvTRPM2", "setting": "[5]; 125 µM Ca2+", "result": "similarly efficacious and potent as ADPR"}, {"measurement": "Hill coefficient nH for channel activation", "setting": "[5]; [10]", "result": "1.3 ± 0.2"}, {"measurement": "EC50", "setting": "[5]; [11]", "result": "~2.7 µM and 2.7 µM"}, {"measurement": "Maximal fractional activation", "setting": "[5]; 125 µM Ca2+", "result": "1.1 ± 0.04"}]}, {"smiles": "O=P(O)(OC[C@H]1OC(O)[C@H](O)[C@@H]1O)OP(=O)(O)OC[C@H]1O[C@@H](n2cnc3c2ncn2ccnc32)[C@H](O)[C@@H]1O", "note": "(some centres unmarked) [ε-ADPR, 1,N^6-ethenoadenosine-5′-O-diphosphoribose]", "values": [{"measurement": "Mode of action on hsTRPM2", "setting": "[3]; ref Iordanov et al., 2016", "result": "low-affinity antagonist"}, {"measurement": "Mode of action on nvTRPM2", "setting": "[5]; 125 µM Ca2+", "result": "low-affinity antagonist"}, {"measurement": "Current induced by the analogue alone", "setting": "[5]; 200 µM, 125 µM cytosolic Ca2+", "result": "only tiny currents"}, {"measurement": "Reduction of currents elicited by 3.2 µM ADPR", "setting": "[5]; coapplication of 200 µM ε-ADPR, 125 µM Ca2+", "result": "~25", "unit": "%"}]}]}
